One data set concerns P. falciparum D6. The data set is described as follows: Malaria SYBR Green Fluorescence Assay, D6 strain. In kind it is cell-based, Plasmodium falciparum.
The next data set deals with P. falciparum W2. The data set is described as follows: Malaria SYBR Green Fluorescence Assay, W2 strain. The format is cell-based, Plasmodium falciparum.
The subject of another data set is P. falciparum C235. The data set is described as follows: Malaria SYBR Green Fluorescence Assay, C235 strain. The format is cell-based, Plasmodium falciparum.
The test system of the next data set is P. berghei. The data set can be described thus: Thompson Test, in vivo mouse malaria assay. The arrangement: species or system mice (ICR strain).
For data set [1], the target named is hERG potassium ion channel (Homo sapiens, UniProt Q12809). The data set is described as follows: hERG patch clamp assay (% inhibition at 10 μM). As to conditions: for hERG (% inhibition): 10 μM. In general terms: The hERG channel carries a current that helps repolarise heart muscle cells.
hERG potassium ion channel, sequence (Q12809 whole entry): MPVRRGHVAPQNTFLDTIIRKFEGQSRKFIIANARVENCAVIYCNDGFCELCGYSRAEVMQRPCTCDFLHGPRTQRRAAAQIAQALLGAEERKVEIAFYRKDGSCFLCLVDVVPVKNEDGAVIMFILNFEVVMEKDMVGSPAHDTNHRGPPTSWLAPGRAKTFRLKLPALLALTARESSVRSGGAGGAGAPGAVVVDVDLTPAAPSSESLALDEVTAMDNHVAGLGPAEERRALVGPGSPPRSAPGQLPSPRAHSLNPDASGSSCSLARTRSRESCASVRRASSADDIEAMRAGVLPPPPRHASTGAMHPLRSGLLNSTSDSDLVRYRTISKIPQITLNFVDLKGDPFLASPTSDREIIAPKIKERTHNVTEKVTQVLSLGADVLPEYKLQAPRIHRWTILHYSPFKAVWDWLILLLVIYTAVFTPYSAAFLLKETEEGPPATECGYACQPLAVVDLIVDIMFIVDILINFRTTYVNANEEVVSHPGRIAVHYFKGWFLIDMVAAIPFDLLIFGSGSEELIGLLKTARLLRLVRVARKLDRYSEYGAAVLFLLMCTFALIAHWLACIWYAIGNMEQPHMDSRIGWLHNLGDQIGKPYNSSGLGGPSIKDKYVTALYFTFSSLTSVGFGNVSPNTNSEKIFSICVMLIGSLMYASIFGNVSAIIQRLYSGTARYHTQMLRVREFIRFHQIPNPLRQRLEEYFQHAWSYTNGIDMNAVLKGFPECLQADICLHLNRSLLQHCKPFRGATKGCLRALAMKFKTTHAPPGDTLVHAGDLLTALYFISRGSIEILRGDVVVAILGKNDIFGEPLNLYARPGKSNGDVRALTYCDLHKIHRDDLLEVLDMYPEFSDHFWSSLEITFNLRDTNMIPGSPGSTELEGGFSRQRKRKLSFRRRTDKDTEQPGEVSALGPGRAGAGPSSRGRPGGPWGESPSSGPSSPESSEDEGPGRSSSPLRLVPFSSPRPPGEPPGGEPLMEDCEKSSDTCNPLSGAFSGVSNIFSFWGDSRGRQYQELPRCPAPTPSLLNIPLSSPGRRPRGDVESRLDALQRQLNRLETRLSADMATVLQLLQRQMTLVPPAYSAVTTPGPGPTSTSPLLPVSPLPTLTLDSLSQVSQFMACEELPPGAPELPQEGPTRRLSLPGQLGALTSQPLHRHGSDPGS
Setting [2] is: % inhibition at 10 μM, patch clamp.
Where [3] appears, read: Plasmodium falciparum, SYBR Green Assay.
Where [4] appears, read: (160 × 3): 160 mg/kg for 3 days.

The values that follow come from patent US9334246B2, “Substituted triazines for malaria treatment and chemoprophylaxis” (The United States of America, as represented by the …, priority 2013, dated 2016).

In brackets after ≈: the same amount, converted by molar mass.

As to `ClC(Cl)(Cl)c1nc(-c2ccc3ccccc3c2)nc(N2CCCNCC2)n1` [Compound 227], the D6 in the data set on P. falciparum D6 (SYBR Green Assay) is given as 29 ng/mL. This molecule showed a W2 with P. falciparum W2 (SYBR Green Assay) of 10 ng/mL. Further, the C235 in the data set on P. falciparum C235 (SYBR Green Assay) was determined as 12 ng/mL. For the same molecule, the “In vivo Results Thompson Assay (n/N Cures or Suppressive)” value (from here on “In vivo Results Thompson Assay”) in the data set with P. berghei ((80 × 3): 80 mg/kg for 3 days) is “(80 × 3) 2/5 Cures”. Moreover, in data set [1] (setting [2]), the hERG is recorded as 18%.

In the case of `CC(C)(N)CNc1nc(-c2ccccc2)nc(C(Cl)(Cl)Cl)n1` [Compound 312], in the data set on P. falciparum D6 (SYBR Green Assay), the D6 came out at 8 ng/mL. This molecule yielded a W2 in the data set with P. falciparum W2 (SYBR Green Assay) of 3 ng/mL. The C235 in the data set on P. falciparum C235 (SYBR Green Assay) is reported as 18 ng/mL. Also, the “In vivo Results Thompson Assay” value with P. berghei ((40 × 3): 40 mg/kg for 3 days) is “Suppressive”; in the data set on P. berghei ((80 × 3): 80 mg/kg for 3 days), “(80 × 3) 3/3 Cures;(40 × 3)”. In data set [1] (setting [2]), this molecule showed a hERG of 65%.

With `CC(C)(C)c1ccc(-c2nc(NCC3(N)CCOCC3)nc(C(Cl)(Cl)Cl)n2)cc1` [Compound 314], the D6 in the data set on P. falciparum D6 (SYBR Green Assay) is given as 7 ng/mL. Also, the W2 in the data set on P. falciparum W2 (SYBR Green Assay) came out at 2 ng/mL. The molecule also had a C235 with P. falciparum C235 (SYBR Green Assay) of 16 ng/mL. In addition, the “In vivo Results Thompson Assay” value in the data set with P. berghei ((80 × 3): 80 mg/kg for 3 days) is recorded as “(80 × 3) Suppressive”. Also, the hERG in data set [1] (setting [2]) was determined as 5%.

For `COc1ccc(-c2nc(NC3CC(C)(C)NC(C)(C)C3)nc(C(Cl)(Cl)Cl)n2)cc1OC` [Compound 328], the D6 in the data set on P. falciparum D6 (SYBR Green Assay) came to 64 ng/mL. The W2 in the data set on P. falciparum W2 (SYBR Green Assay) amounted to 40 ng/mL. The molecule further returned a C235 with P. falciparum C235 (SYBR Green Assay) of 84 ng/mL. For the same molecule, in the data set on P. berghei ((80 × 3): 80 mg/kg for 3 days), the “In vivo Results Thompson Assay” value is recorded as “(80 × 3) 2/5 Cures”. In data set [1] (setting [2]), this molecule returned a hERG of 31%.

For the molecule `CCC(N)(CC)CNc1nc(-c2ccc(S(C)(=O)=O)cc2)nc(C(Cl)(Cl)Cl)n1` [Compound 365], the “D6 (SYBR Green Assay IC50)” value in the data set on P. falciparum D6 was 5 ng/mL. In addition, the “W2 (SYBR Green Assay IC50)” value with P. falciparum W2 turned out to be 5 ng/mL. In the data set with P. falciparum C235, the “C235 (SYBR Green Assay IC50)” value turned out to be 10 ng/mL. The “In vivo Results Thompson Assay” value in the data set on P. berghei ((80 × 3): 80 mg/kg for 3 days) is “(80 × 3) Suppressive”. The “hERG (% inhibition)” value in data set [1] came out at 69%.

In the data set with P. falciparum D6 (SYBR Green Assay), `CS(=O)(=O)c1ccc(-c2nc(N3CC4CC3CN4)nc(C(Cl)(Cl)Cl)n2)cc1` (stereo not drawn) [Compound 724, CS(═O)(═O)c1ccc(cc1)c2nc(nc(n2)C(Cl)(Cl)Cl)N3CC4CC3CN4] registered a D6 of 106 ng/mL. In the data set with P. falciparum W2 (SYBR Green Assay), this molecule came in with a W2 of 71 ng/mL. Moreover, in the data set on P. falciparum C235 (SYBR Green Assay), the C235 came to 110 ng/mL. Besides, the “In vivo Results Thompson Assay” value with P. berghei ((80 × 3): 80 mg/kg for 3 days) is “(80 × 3) Suppressive”. The molecule further had a hERG in data set [1] (hERG activity as % inhibition) of 70%.

The term IC50 denotes the concentration at which inhibition is half-maximal. In the case of `FC(F)(F)c1cccc(-c2nc(N3CC4CC3CN4)nc(C(Cl)(Cl)Cl)n2)c1` (stereo not drawn) [Ex. 7, 2-(4-(trichloromethyl)-6-(3-(trifluoromethyl)phenyl)-1,3,5-triazin-2-yl)-2,5-diazabicyclo[2.2.1]heptane], the IC50 was 0.106 µg/mL (≈ 0.242 µM) with P. falciparum D6 (setting [3]), 0.126 µg/mL (≈ 0.287 µM) in the data set with P. falciparum W2 (setting [3]) and 0.192 µg/mL (≈ 0.438 µM) in the data set on P. falciparum C235 (setting [3]). In addition, the “In vivo Results Thompson Assay” value in the data set with P. berghei ((80 × 3): 80 mg/kg for 3 days) was “Suppressive”; in the data set on P. berghei (setting [4]) it was 4/5. The molecule further registered a hERG in data set [1] (hERG activity as % inhibition) of 29%.

With “CCN1CCC(CC1)C(C)Nc2nc(Nc3ccc(Cl)c(Cl)c3)nc(n2)C(Cl)(Cl)Cl [Compound 643]”, in the data set with P. falciparum D6, the “D6 (SYBR Green Assay IC50)” value was determined as 47 ng/mL. In addition, the “W2 (SYBR Green Assay IC50)” value in the data set with P. falciparum W2 is listed as 33 ng/mL. In addition, the “C235 (SYBR Green Assay IC50)” value in the data set on P. falciparum C235 was found to be 48 ng/mL. In addition, the “In vivo Results Thompson Assay” value in the data set with P. berghei ((80 × 3): 80 mg/kg for 3 days) is “(80 × 3) 2/5 Cures”. For the same molecule, the “hERG (% inhibition)” value in data set [1] turned out to be 100%.

For the molecule “CCN1CCCC(C1)Nc2nc(Nc3cc(Cl)cc(Cl)c3)nc(n2)C(Cl)(Cl)Cl [Compound 638]”, the “D6 (SYBR Green Assay IC50)” value with P. falciparum D6 is recorded as 5 ng/mL. Further, the “W2 (SYBR Green Assay IC50)” value with P. falciparum W2 is reported as 5 ng/mL. Moreover, in the data set with P. falciparum C235, the “C235 (SYBR Green Assay IC50)” value was 5 ng/mL. The “In vivo Results Thompson Assay” value in the data set on P. berghei ((80 × 3): 80 mg/kg for 3 days) is listed as “(80 × 3) Suppressive”. Besides, the “hERG (% inhibition)” value in data set [1] is 49%.

Regarding “COC1═CC═CC(═C1)C1═NC(NCC2(N)CCCCC2)═NC(═N1)C(Cl)(Cl)Cl [Compound 661]”, the D6 in the data set on P. falciparum D6 (SYBR Green Assay) came out at 3 ng/mL. The W2 with P. falciparum W2 (SYBR Green Assay) was 2 ng/mL. Further, in the data set on P. falciparum C235 (SYBR Green Assay), the C235 worked out at 8 ng/mL. For the same molecule, the “In vivo Results Thompson Assay” value with P. berghei ((80 × 3): 80 mg/kg for 3 days) is given as “(80 × 3) Suppressive”. For the same molecule, the hERG in data set [1] (hERG activity as % inhibition) turned out to be 32%.

In the data set with P. falciparum D6 (SYBR Green Assay), “Cc1ccc(cc1)c2nc(nc(n2)C(Cl)(Cl)Cl)N3CC4CC3CN4 [Compound 719]” yielded a D6 of 96 ng/mL. Moreover, the W2 in the data set on P. falciparum W2 (SYBR Green Assay) was determined as 68 ng/mL. In the data set on P. falciparum C235 (SYBR Green Assay), this molecule displayed a C235 of 114 ng/mL. The “In vivo Results Thompson Assay” value in the data set with P. berghei ((80 × 3): 80 mg/kg for 3 days) is “(80 × 3) Suppressive; (160 × 3)”; in the data set with P. berghei (setting [4]), “Suppressive”. For the same molecule, the hERG in data set [1] (hERG activity as % inhibition) is given as 10%.

For the molecule “ClC(Cl)(Cl)c1ccc(cc1)c2nc(nc(n2)C(Cl)(Cl)Cl)N3CC4CC3CN4 [Compound 722]”, in the data set with P. falciparum D6 (SYBR Green Assay), the D6 came out at 9 ng/mL. Also, in the data set on P. falciparum W2 (SYBR Green Assay), the W2 worked out at 5 ng/mL. Further, the C235 in the data set on P. falciparum C235 (SYBR Green Assay) stood at 12 ng/mL. Besides, the “In vivo Results Thompson Assay” value in the data set with P. berghei ((80 × 3): 80 mg/kg for 3 days) is listed as “Suppressive”; in the data set on P. berghei (setting [4]), 5/5. The molecule further showed a hERG in data set [1] (hERG activity as % inhibition) of 14%.

Regarding “ClC(Cl)(Cl)c1nc(NCCCN2CCCC2)nc(Nc3ccc(cc3)n4cccn4)n1 [Compound 728]”, the D6 with P. falciparum D6 (SYBR Green Assay) is listed as 77 ng/mL. This molecule yielded a W2 in the data set on P. falciparum W2 (SYBR Green Assay) of 27 ng/mL. Besides, the C235 with P. falciparum C235 (SYBR Green Assay) came out at 79 ng/mL. Further, the “In vivo Results Thompson Assay” value in the data set on P. berghei ((80 × 3): 80 mg/kg for 3 days) is “(80 × 3) Suppressive”. The molecule also showed a hERG in data set [1] (hERG activity as % inhibition) of 116%.
